What all share (assay type): in vivo
Assay [1] deals with Arabidopsis thaliana Columbia-0. Kind of assay: Arabidopsis vertical plate growth assay (primary root length, shoot biomass). Conditions: low phosphate. As for the experimental part: (§1) All Arabidopsis plant experiments were performed using the Arabidopsis thaliana Columbia-0 background. The Arabidopsis pSPX1::GUS line is described in the […] 2008, 54: 965-975. For rice, the cultivar Nipponbare was used. For maize, the cultivars DKC 2931 and 8104 were used for regular pot experiments and sand-based pot experiments, respectively. For soybean, the cultivar Primus was used. […] The medium was solidified due to the addition of 0.6% Gelrite, unless stated otherwise. In case of vertical plates (root length and root hair measurements), the medium was supplied with 0.5% of sucrose and 1 μM (low phosphate, 1 μM KH2PO4, 9.9 mM KCl), 10 μM (low phosphate 10 μM KH2PO4, 9.9 mM KCl) or 1.25 mM KH2PO4 (high phosphate). Arabidopsis seeds were stratified for 2 days at 4° C. before germination. Seedlings were germinated in climate-controlled growth chambers at 22° C. under continuous light ([…] m^−2 s^−1). Husked rice seeds were germinated on wetted Whatman paper for 2 days at 37° C. and then transferred to Sterivent boxes or square Petri dishes with solid medium. Maize and soybean seeds were wetted 24 hours at room temperature prior to sowing in pots.
(§2) Arabidopsis primary root growth experiments were done on MS1/2 on vertical standing plates and roots were measured 11 days after germination. Roots were imaged using a flatbed scanner (EPSON Expression 11000XL) and root length was measured using ImageJ software. Arabidopsis shoot biomass was determined in 11 days after germination and growth on vertical standing plates with modMS. Arabidopsis leaf area was measured 21 days after germination on horizontal plates with modMS medium. Plates were scanned from the top using a flatbed scanner (EPSON Expression 11000XL) and the visible leaf area was measured using ImageJ software. Rice plate experiments used vertically standing Petri dishes containing MS1/2 medium (low phosphate—0.001 mM) solidified with 0.8% washed agar. Plant height was measured 11 days after germination. […] Plant height was measured 13 days after germination. […]

Assay [2] has the same test system. Kind of assay: Arabidopsis pot experiment (rosette size, soil phosphate, anthocyanin). As for the experimental part: Regular Arabidopsis, soybean and maize pot experiments used an unfertilized potting soil, which was supplemented at the start of the experiment with 50 ml H2O containing 0.25 g/l NH4NO3 and 0.44 g/l (high phosphate) or no (maize and soybean) or 0.11 g/l KH2PO (Arabidopsis) for low phosphate conditions. For the sand-based maize pot experiment, sand was supplemented with 50 ml H2O containing 0.25 g/l NH4NO3 and 0.38 g/l (high phosphate) or 0.02 g/l (low phosphate) KH2PO4. Potassium was balanced via addition of KCl. Compound concentration was 10 μM, calculated based on the total water content after watering, and was added at the start of the experiment (Arabidopsis) or once a week (maize). Indexed chlorophyll contents were received via a SPAD 502 Plus Chlorophyll Meter. All parameters in the sand experiment, except the rate of leaf 4 (measured the first 4 days after emergence), were measured 19 days after sowing. Measurements in the pot experiments with potting soil were done after 4 weeks of growth, except for leaf 5, which was measured at 26 days. The long term maize pot experiment was performed on the automated Phenovision platform (see Mertens et al, 2021, https://doi.org/10.3389/fpls.2021.640914) with maize cultivars B104 and DKC2931. End point measurements occurred after 90 days (B104) or 70 days (DKC2931). Plants were grown on an unfertilized potting soil, which was fertilized bi-weekly with 50 mL modified Hoagland solution (2.5× concentrated; but with 0.25 mM KH2PO4). Col-0 ecotype Arabidopsis seeds were sown in 96-well plates containing 150 μl of low phosphate modMS liquid medium containing 1% of sucrose. Compounds was added in 50 μM concentration (1% DMSO). 7 days after germination, plates were scanned using a flatbed scanner (EPSON Expression 11000XL) and wells containing non-germinated seedlings were excluded from the following analysis. Plants were removed from each well and 50 μl of medium was recovered from each well and used for molybdenum blue staining as described in Plant Physiology 2008, 146:1673-1686. To measure the phosphate level in soil, Olsen P extraction was used on 1 g of air dried soil, 500 ul of extract was used for molybdenum blue staining as described in The Plant cell 2013, 25:1641-1656. Values were expressed relative to the low phosphate control. Col-0 ecotype Arabidopsis seeds were sown in 96-well plates containing 150 μl of low phosphate modMS liquid medium containing 1% of sucrose. […] Extraction and quantification of anthocyanin levels was carried out according to The Plant cell 2013, 25:1641-1656. Anthocyanin levels were quantified by measuring absorption at 530 and 657 nm using a spectrophotometer and normalized to fresh weight input, and expressed relative to the low phosphate control. […]

The subject of a further assay is rice cultivar Nipponbare. Kind of assay: Rice plate experiment (plant height). As to conditions: low phosphate 0.001 mM, 10 μM compound, 11 days after germination. As for the experimental part:
All Arabidopsis plant experiments were performed using the Arabidopsis thaliana Columbia-0 background. The Arabidopsis pSPX1::GUS line is described in the […] 2008, 54: 965-975. For rice, the cultivar Nipponbare was used. For maize, the cultivars DKC 2931 and 8104 were used for regular pot experiments and sand-based pot experiments, respectively. For soybean, the cultivar Primus was used. […] The medium was solidified due to the addition of 0.6% Gelrite, unless stated otherwise. […]
as §2, with “Rice plate experiments used vertically standing Petri dishes containing MS1/2 medium (low phosphate—0.001 mM) solidified with 0.8% washed agar.” left out

The next assay concerns maize cultivar 8104. Put plainly: Sand-based maize pot experiment. Conditions: low phosphate, 10 μM compound. On the procedure:
as §1
Regular Arabidopsis, soybean and maize pot experiments used an unfertilized potting soil, which was supplemented at the start of the experiment with 50 ml H2O containing 0.25 g/l NH4NO3 and 0.44 g/l (high phosphate) or no (maize and soybean) or 0.11 g/l KH2PO (Arabidopsis) for low phosphate conditions. For the sand-based maize pot experiment, sand was supplemented with 50 ml H2O containing 0.25 g/l NH4NO3 and 0.38 g/l (high phosphate) or 0.02 g/l (low phosphate) KH2PO4. Potassium was balanced via addition of KCl. Compound concentration was 10 μM, calculated based on the total water content after watering, and was added at the start of the experiment (Arabidopsis) or once a week (maize). Indexed chlorophyll contents were received via a SPAD 502 Plus Chlorophyll Meter. All parameters in the sand experiment, except the rate of leaf 4 (measured the first 4 days after emergence), were measured 19 days after sowing. Measurements in the pot experiments with potting soil were done after 4 weeks of growth, except for leaf 5, which was measured at 26 days. The long term maize pot experiment was performed on the automated Phenovision platform (see Mertens et al, 2021, https://doi.org/10.3389/fpls.2021.640914) with maize cultivars B104 and DKC2931. End point measurements occurred after 90 days (B104) or 70 days (DKC2931). Plants were grown on an unfertilized potting soil, which was fertilized bi-weekly with 50 mL modified Hoagland solution (2.5× concentrated; but with 0.25 mM KH2PO4).

Where [3] appears, read: Arabidopsis vertical plate, 10 μM compound, 11 days after germination.

For the compound `CCN(CCCNc1ncnc2nc(N)ccc12)c1ccccc1` [Example 1], the “Primary root length compared with the control without compound (in words)” value in assay [1] (10 μM, 11-day-old Arabidopsis) is given as “almost double the length of the control”. In assay [1] (setting [3]), this compound displayed a Primary root length of 3.4 cm and a Shoot biomass of 21 mg. The compound further displayed a Relative anthocyanin level in assay [2] (Arabidopsis pot, 4-week old plant, relative to low phosphate control (=1)) of 0.7. In assay [2] (Arabidopsis pot, Olsen P, after 4 weeks, relative to low phosphate control (=1)), the “Phosphate level in soil (relative value)” value turned out to be 0.8. Further, the Rosette size in assay [2] (Arabidopsis pot, low phosphate, 10 μM compound, 4 weeks) worked out at 17 cm^2. The “Anthocyanin level in the leaves (in words)” value in assay [2] (plants grown in pots) is given as “reduced”. In addition, the Plant height in the assay on rice cultivar Nipponbare was 15 cm. In the assay with maize cultivar 8104 (19 days after sowing), this compound had a Crown root number of 8 and a Plant height of 27 cm. This compound registered an Indexed chlorophyll content in the assay on maize cultivar 8104 (SPAD meter, 19 days after sowing) of 31. Besides, in the assay with maize cultivar 8104 (first 4 days after emergence), the “Growth rate of leaf 4” value is recorded as 2.64 cm/day.

Source of the values: patent US20240306641A1, “P-BOOSTER” (EUROCHEM ANTWERPEN, priority 2021, published 2024).
